Experimental data taken from paper PMC9016025, “Translational imaging of the fibroblast activation protein (FAP) using the new ligand [^68Ga]Ga-OncoFAP-DOTAGA” (European Journal of Nuclear Medicine and Molecular Imaging, 2021).
Where two headings read alike, the source gives them in different places.

Experiments:
[1] = tested on: subcutaneous HT1080 (FAP−) and HT1080-hFAP (FAP+) tumors; test: Dynamic and late static small animal PET/MRI in tumor-bearing mice; type: in vivo, mouse
Protocol: Tumor cells (10^6 cells in 50 μL saline) were implanted subcutaneously in the shoulders of NMRI mice with HT1080 wildtype (FAP^−) in one shoulder and with stably transfected human FAP-expressing HT1080 cells (FAP^+) in the contralateral shoulder. Cells were kindly provided by U. Haberkorn, University of Heidelberg. At day 11 after implantation, mice received whole-body PET/MRI (1 T Mediso nanoScan) imaging with list mode PET for 60 min and additional non-contrast-enhanced anatomic, coronal T1-weighted MRI, followed by late static PET/MRI imaging 180 min p.i. Either ^68Ga-OncoFAP or ^68Ga-FAPI-46 (n = 6 each) was injected into the tail vein with a syringe pump at 1000 μL/min in a volume of 100 μL 30 s after the start of PET. At the next day (day 12 after implantation), the same mice were injected with the respective other FAP-tracer and received identical dynamic PET/MRI for 60 min. Sixty minutes p.i., mice were sacrificed under deep narcosis and organs and body fluids were harvested, weighed, and γ-counted. All involved measuring hardware (dose calibrator ISOMED 2010, automatic γ-counter PERKIN ELMER WALAC 2480, Twilite coincidence detector Swisstrace, PET/MRI) were cross-calibrated for ^68Ga. Overall, 3 scans were rejected, because of extravasation (day 11 OncoFAP), inability of i.v. access (day 12 FAPI-46), and insufficient radioactivity (day 12 FAPI-46), respectively. The resulting injected amounts of radioactivity for the remaining 11 ^68Ga-OncoFAP scans and 10 ^68Ga-FAPI-46 scans were 19.2 ± 4.4 MBq and 18.2 ± 4.8 MBq, respectively.
Dynamic PET scans were reconstructed in time frames of 1 × 30 s, 5 × 12 s, 5 × 60 s, 4 × 300 s, 2 × 600 s, and 1 × 810 s. Frames 12 and 18 and the late scan are referred to as (rounded) 10 min, 1 h, and 3 h throughout the manuscript. Volume of interests (VOI) of tumors and representative organs were defined on anatomic MRI. Resulting tumor volumes for ^68Ga-OncoFAP scans for FAP^+ and FAP^− tumors were 0.4 ± 0.36 and 0.22 ± 0.15, and for FAPI-46 scans were 0.34 ± 0.20 and 0.2 ± 0.17 (n.s. different between the two tracers).

[2] = tested on: subcutaneous HT1080 (FAP−) and HT1080-hFAP (FAP+) tumors; test: Pharmacokinetic modeling (2TCM, Patlak) of small animal PET with extracorporeal arterial input function; type: in vivo, mouse; set-up: Vs (distribution volume) / k1 / k2 / k3 / k4: unit not given here; conditions: geometric mean ± SD; for Vs (distribution volume) / k1 / k2 / k3 / k3/k4 / k4: 2TCM
Protocol: Before PET/MRI at day 12, p.i. mice received surgery to establish an extracorporeal circulation shunting of the blood from the femoral artery to the tail vein or contralateral femoral vein as described previously. At 40 cm from the femoral artery, the shunt (0.3 mm inner diameter silicon; total extracorporeal volume 56.6 μL) was led through a Twilite coincidence detector. Acquired blood activity curves were calibrated with a separately measured calibration factor for ^68Ga according to vendor’s instructions. The curves were corrected for delay and dispersion based on a numerical deconvolution, using dispersion kernels derived from measuring step functions at defined pumping speeds. Standard 2-tissue compartmental (2TCM) pharmacokinetic (PK) modeling and Patlak analysis was performed for the triceps muscle, and FAP^− and FAP^+ tumors using PMOD version 3.703 (PMOD Technologies LLC) and was based on mean PET VOI time activity curves and Twilite-based extracorporeal arterial input functions (AIF). AIF plasma fraction was calculated based on direct hematocrit measurements after imaging (StatStrip® Hb/Hct, Nova Biomedical).

[3] = tested on: patients with breast cancer; set-up: method as in PMID 34636633; conditions: previously published patient sample, cited from earlier work

In the case of `CN(CCCN1CCN(C(=O)CN2CCN(CC(=O)[O-])CCN(CC(=O)[O-])CCN(CC(=O)[O-])CC2)CC1)c1ccc2nccc(C(=O)NCC(=O)N3CC(F)(F)C[C@H]3C#N)c2c1.[68Ga+3]` [^68Ga-FAPI-46, [^68Ga]Ga-FAPI-46], the SUVmean blood ([1]; small animal PET 10 min p.i.) is reported as 0.52 ± 0.09, the SUVmean kidney ([1]; small animal PET 10 min p.i.) is reported as 1.43 ± 0.88 and the SUVmean liver ([1]; small animal PET 10 min p.i.) is reported as 0.57 ± 0.17. The SUVmean muscle ([1]; small animal PET 10 min p.i.) was 0.35 ± 0.07, the SUVmean spleen ([1]; small animal PET 10 min p.i.) was 0.40 ± 0.19 and the “SUVmean tumor FAP+” value ([1]; small animal PET 10 min p.i.) was 0.40 ± 0.07. The “SUVmean tumor FAP-” value ([1]; small animal PET 10 min p.i.) was 0.39 ± 0.07, the SUVmean blood ([1]; small animal PET 1 h p.i.) was 0.19 ± 0.07 and the SUVmean kidney ([1]; small animal PET 1 h p.i.) was 0.54 ± 0.54. For the same compound, the SUVmean liver ([1]; small animal PET 1 h p.i.) was 0.28 ± 0.16, the SUVmean muscle ([1]; small animal PET 1 h p.i.) was 0.08 ± 0.04 and the SUVmean spleen ([1]; small animal PET 1 h p.i.) was 0.15 ± 0.07. The “SUVmean tumor FAP+” value ([1]; small animal PET 1 h p.i.) was 0.25 ± 0.06, the “SUVmean tumor FAP-” value ([1]; small animal PET 1 h p.i.) was 0.10 ± 0.05 and the SUVmean kidney ([1]; small animal PET 3 h p.i.) was 0.07 ± 0.02. For the same compound, the SUVmean liver ([1]; small animal PET 3 h p.i.) was 0.28 ± 0.19, the SUVmean muscle ([1]; small animal PET 3 h p.i.) was 0.02 ± 0.00 and the SUVmean spleen ([1]; small animal PET 3 h p.i.) was 0.09 ± 0.06. The “SUVmean tumor FAP+” value ([1]; small animal PET 3 h p.i.) was 0.16 ± 0.06, the “SUVmean tumor FAP-” value ([1]; small animal PET 3 h p.i.) was 0.02 ± 0.01 and the “Vs (distribution volume)” value ([2]; tumor FAP+) was 0.25 ± 0.29. It also gave a k1 ([2]; tumor FAP+) of 0.042 ± 0.012, a k2 ([2]; tumor FAP+) of 0.298 ± 0.038 and a k3 ([2]; tumor FAP+) of 0.029 ± 0.024. For the same compound, the k3/k4 ([2]; tumor FAP+) was 1.77 ± 2.74, the k4 ([2]; tumor FAP+) was 0.017 ± 0.011 and the “Vs (distribution volume)” value ([2]; tumor FAP+, listed as FAPI-46) was 0.246 ± 0.287. The k3/k4 ([2]; tumor FAP+, listed as FAPI-46) was 1.770 ± 2.737, the “Vs (distribution volume)” value ([2]; tumor FAP−) was 0.121 ± 0.227 and the k1 ([2]; tumor FAP−) was 0.049 ± 0.003. For the same compound, the k2 ([2]; tumor FAP−) was 0.323 ± 0.115, the k3 ([2]; tumor FAP−) was 0.012 ± 0.031 and the k3/k4 ([2]; tumor FAP−) was 0.801 ± 0.908. The k4 ([2]; tumor FAP−) was 0.015 ± 0.038, the Patlak intercept ([2]; tumor FAP+) was 0.176 ± 0.035 and the Patlak slope ([2]; tumor FAP+) was 0.002 ± 0.001. For the same compound, the Patlak intercept ([2]; tumor FAP−) was 0.207 ± 0.019, the Patlak slope ([2]; tumor FAP−) was 0.000 ± 0.000 and the “Blood (prone SUVmean)” value [3] was 1.7 ± 0.2. For the same compound, the “Blood (supine SUVmean)” value [3] was 1.3 ± 0.3, the “Bone (supine SUVmean)” value [3] was 0.4 ± 0.1 and the “Breast cancer LN metastasis (supine SUVmax)” value [3] was 12.2 ± 6.2 (n = 13). For the same compound, the “Distant metastases any cancer (supine SUVmax)” value [3] was 12.3 ± 0.2 (n = 2), the “Kidney (supine SUVmean)” value [3] was 1.5 ± 0.4 and the “Liver (supine SUVmean)” value [3] was 0.9 ± 0.3. For the same compound, the “Muscle (supine SUVmean)” value [3] was 1.1 ± 0.2, the “Pancreas (supine SUVmean)” value [3] was 1.1 ± 0.4 and the “Primary breast cancer (prone SUVmax)” value [3] was 14.0 ± 5.7 (n = 17). The “Spleen (supine SUVmean)” value [3] was 1.1 ± 0.8, the “Uterus (supine SUVmax)” value [3] was 11.6 ± 4.5 (n = 18) and the “Uterus (supine SUVmax)” value ([3]; listed as FAPI-46) was 11.6 ± 4.5.
